Where a name gives a salt, the structure may show the parent alone.
The compounds below were run against catalytic domain of human PARP14 (Homo sapiens (Human), UniProt Q460N5) (assay: Enzymatic assay for inhibition of PARP14 (DELFIA, auto-modification with biotin-NAD)). Details: auto-modification of PARP14 by biotin-NAD, 50 nM PARP14, 3 μM biotin-NAD.
Type: biochemical
Method in brief: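 His-TEV-tagged PARP14 catalytic domain (50 nM) preincubated with compound 30 min at 25 °C, then auto-modified with 3 μM biotin-NAD for 3 h at 25 °C in HEPES pH 8 buffer with DTT. IC50 from 4-parameter fit, rucaparib and DMSO as controls.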

catalytic domain of human PARP14, sequence (Q460N5 1611-1801): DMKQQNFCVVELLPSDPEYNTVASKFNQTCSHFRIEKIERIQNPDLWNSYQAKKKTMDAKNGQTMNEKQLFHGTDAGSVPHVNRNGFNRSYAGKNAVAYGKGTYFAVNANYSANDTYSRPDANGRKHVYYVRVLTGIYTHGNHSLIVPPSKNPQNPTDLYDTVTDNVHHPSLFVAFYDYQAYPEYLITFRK

| IC50 [nM] | SMILES |
| --- | --- |
| < 1000 | O=c1[nH]c(CS[C@H]2CC[C@@H](O)CC2)nc2cc(OCC3CCOCC3)cc(F)c12 [Example 365] |
| < 1000 | CN(C)C(=O)N1CCC(SCc2nc3cc(NC4CCCC4)cc(F)c3c(=O)[nH]2)CC1 [Example 220, 4-(((7-(Cyclopentylamino)-5-fluoro-4-oxo-3,4-dihydroquinazolin-2-yl)methyl)thio)-N,N-dimethylpiperidine-1-carboxamide] |
| < 1000 | CC(C)(COc1cc(F)c2c(=O)[nH]c(CSC3CCOCC3)nc2c1)C(F)(F)F [Example 421] |
| < 1000 | O=c1[nH]c(CSC2CCOCC2)nc2cc(N[C@H]3CCCOC3)ccc12 [Example 187, (S)-7-((tetrahydro-2H-pyran-3-yl)amino)-2-(((tetrahydro-2H-pyran-4-yl)thio)methyl)quinazolin-4(3H)-one] |
| < 1000 | Cc1cccc2c(=O)[nH]c(CSC3CCN(Cc4ccccn4)CC3)nc12 [Example 18, 8-Methyl-2-(((1-(pyridin-2-ylmethyl)piperidin-4-yl)thio)methyl)quinazolin-4(3H)-one] |
| < 1000 | O=c1[nH]c(CSC2CCOCC2)nc2cc(NCC3CC3)c(F)c(F)c12 [Example 337] |
| < 1000 | CC(=O)Nc1ccc(CN2CCC(SCc3nc4c(C)cccc4c(=O)[nH]3)CC2)cc1 [Example 139, N-(4-((4-(((8-Methyl-4-oxo-3,4-dihydroquinazolin-2-yl)methyl)thio)piperidin-1-yl)methyl)phenyl)acetamide trifluoroacetate] |
| 1000 to 10000 | Cc1cncc(Nc2ccc3c(=O)[nH]c(CSC4CCOCC4)nc3c2)c1 [Example 92, 7-((5-Methylpyridin-3-yl)amino)-2-(((tetrahydro-2H-pyran-4-yl)thio)methyl)quinazolin-4(3H)-one] |
| < 1000 | O=c1[nH]c(CS[C@H]2CC[C@@H](OC(F)(F)F)CC2)nc2cc(OCC3CCOCC3)cc(F)c12 [Example 418] |
| < 1000 | O=c1[nH]c(CSC2CCOCC2)nc2cc(OC3CCCC3)ccc12 [Example 197, 7-(cyclopentyloxy)-2-(((tetrahydro-2H-pyran-4-yl)thio)methyl)quinazolin-4(3H)-one] |
| 1000 to 10000 | Cc1cccc2c(=O)[nH]c(CS[C@H]3CC[C@@H](C(N)=O)CC3)nc12 [Example 204, cis-4-(((8-Methyl-4-oxo-3,4-dihydroquinazolin-2-yl)methyl)thio)cyclohexane-1-carboxamide] |
| < 1000 | CC1(C)CC(SCc2nc3cc(OCC4CCC4)cc(F)c3c(=O)[nH]2)CCO1 (centres unmarked) [Example 308, 7-(Cyclobutylmethoxy)-2-(((2,2-dimethyltetrahydro-2H-pyran-4-yl)thio)methyl)-5-fluoroquinazolin-4(3H)-one] |
| 1000 to 10000 | Cc1cccc2c(=O)[nH]c(CSC3CCN(Cc4nn(C)c5ccccc45)CC3)nc12 [Example 143, 8-Methyl-2-(((1-((1-methyl-1H-indazol-3-yl)methyl)piperidin-4-yl)thio)methyl)quinazolin-4(3H)-one trifluoroacetate] |
| < 1000 | O=c1[nH]c(CSC2CCNCC2)nc2cc(OCC3CCC3)cc(F)c12 [Example 280, 7-(Cyclobutylmethoxy)-5-fluoro-2-((piperidin-4-ylthio)methyl)quinazolin-4(3H)-one 2,2,2-trifluoroacetate] |

| SMILES | IC50 [nM] |
| --- | --- |
| Cc1cccc2c(=O)[nH]c(CSC3CCC(CN(C)C)CC3)nc12 (centres unmarked) [Example 67, 2-(((4-((Dimethylamino)methyl)cyclohexyl)thio)methyl)-8-methylquinazolin-4(3H)-one trifluoroacetate] | < 1000 |
| Cc1cc(NC2CCCC2)cc2nc(CSC3CCNCC3)[nH]c(=O)c12 [Example 257, 7-(Cyclopentylamino)-5-methyl-2-((piperidin-4-ylthio)methyl)quinazolin-4(3H)-one hydrochloride] | < 1000 |
| O=c1[nH]c(CSC2CCOCC2)nc2cc(N[C@H]3CC[C@@H](N4CCOCC4)CC3)cc(F)c12 [Example 234, 5-Fluoro-7-((cis-4-morpholinocyclohexyl)amino)-2-(((tetrahydro-2H-pyran-4-yl)thio)methyl)quinazolin-4(3H)-one Trifluoroacetate] | 1000 to 10000 |
